The assay concerns the target T1, recombinant human 5-HT4 receptor (Homo sapiens, UniProt Q13639).
T1 construct: expressed in transfected cells
The assay can be described thus: Determination of EC50 values for 5-HT4 receptor (CHO cells, pCRE-Luc reporter). To be noted: luciferase reporter, 4 hours incubation, read-out: 5-HT4 receptor agonistic binding in-vitro EC50. It is filed as cell-based. The protocol: A stable CHO cell line expressing recombinant human 5-HT4 receptor and pCRE-Luc reporter system was used for cell-based assay. The assay offers a non-radioactive based approach to determine binding of a compound to GPCRs. In this specific assay, the level of intracellular cyclic AMP, which is modulated by activation, or inhibition of the receptor is measured. The recombinant cells harbor luciferase reporter gene under the control of cAMP response element.
The above cells were grown in 96 well clear bottom white plates in Hams F12 medium containing 10% fetal bovine serum (FBS). Prior to the addition of compounds or standard agonist, cells were serum starved overnight. Increasing concentrations of test compounds were added in OptiMEM medium to the cells. The incubation was continued at 37° C. in CO2 incubator for 4 hours. Medium was removed and cells were washed with phosphate buffered saline. The cells were lysed and luciferase activity was measured in a Luminometer. Luminescence units were plotted against the compound concentrations using Graphpad software. EC50 values of the compounds were defined as the concentration required in stimulating the luciferase activity by 50%.
A general note: Reporter assays use an easily measured gene product as a stand-in for the process of interest.

Molecules are shown by their SMILES. Structures can show the parent of a compound that is named as a salt.

In general, EC50 refers to the midpoint of the concentration-response curve.

T1 sequence (Q13639 whole entry): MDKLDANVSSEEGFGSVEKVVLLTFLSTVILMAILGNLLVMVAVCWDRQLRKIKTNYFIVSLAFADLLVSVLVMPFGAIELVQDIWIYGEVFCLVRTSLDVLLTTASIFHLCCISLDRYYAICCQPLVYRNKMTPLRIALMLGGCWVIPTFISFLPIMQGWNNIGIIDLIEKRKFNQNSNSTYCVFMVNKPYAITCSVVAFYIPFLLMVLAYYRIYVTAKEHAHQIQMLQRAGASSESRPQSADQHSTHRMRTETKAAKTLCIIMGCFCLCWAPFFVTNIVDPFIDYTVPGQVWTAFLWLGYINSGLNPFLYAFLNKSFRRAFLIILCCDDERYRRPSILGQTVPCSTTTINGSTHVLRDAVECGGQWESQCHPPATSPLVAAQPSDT

For the molecule `CC(C)n1cc2cccc(C(=O)NCC3CCN(CC4CCOC4)CC3)c2n1` (stereo not shown) [Example 23, N—[(N-tetrahydrofuran-3-ylmethyl)piperidin-4-ylmethyl]-2-isopropyl-2H-indazole-7-carboxamide], the EC50 was at most 1 nM.
For `CC(C)n1cc2cccc(C(=O)NCC3(F)CCN(CC4CCOCC4)CC3)c2n1` [Example 22, N—[(N-tetrahydropyran-4-ylmethyl)-4-fluoropiperidin-4-ylmethyl]-2-isopropyl-2H-indazole-7-carboxamide] the value was 1.1 to 5 nM; for `CC(C)n1cc2cccc(C(=O)NCC3C4CN(C5CCOCC5)CC34)c2n1` (stereo not shown) [Example 12, N—[N-(tetrahydropyran-4-yl)-3-azabicyclo[3.1.0]hexane-6-ylmethyl]-2-isopropyl-2H-indazole-7-carboxamide], 1.1 to 5 nM; for `COCCCN1CCC(O)(CNC(=O)c2cccc3cn(C(C)C)nc23)CC1` [Example 28, N—[N-(3-methoxypropyl)-4-hydroxypiperidin-4-ylmethyl]-2-isopropyl-2H-indazole-7-carboxamide fumarate], 1.1 to 5 nM.
As for `CC(C)N1CCC(NC(=O)c2cccc3cn(C(C)C)nc23)CC1` [Example 19, N—(N-isopropylpiperidine-4-yl)-2-isopropyl-2H-indazole-7-carboxamide fumarate], the 50% effective concentration (EC50) was 20.1 to 50 nM.
For `CC(C)n1cc2cccc(C(=O)NCC3CN(CC4CCOCC4)CCO3)c2n1` (stereo not shown) [Example 9, N—[(N-tetrahydropyran-4-ylmethyl)morpholine-2-ylmethyl]-2-isopropyl-2H-indazole-7-carboxamide] the value was 5.1 to 20 nM; for `CC(C)n1cc2cccc(C(=O)NCC3(F)CCN(CC4(O)CCOCC4)CC3)c2n1` [Example 31, N—[N-(4-hydroxytetrahydropyran-4-ylmethyl)-4-fluoropiperidin-4-ylmethyl]-2-isopropyl-2H-indazole-7-carboxamide L(+) Tartarate], 1.1 to 5 nM; for `CC(C)n1cc2cccc(C(=O)NCC3(O)CCN(CC(C)(C)O)CC3)c2n1` [Example 30, N—[N-(2-hydroxy-2-methylpropyl)-4-hydroxypiperidin-4-ylmethyl]-2-isopropyl-2H-indazole-7-carboxamide oxalate], 1.1 to 5 nM.
On to `CC(C)n1cc2cccc(-c3nnc(C4CCN(CC5CCOCC5)CC4)o3)c2n1` [Example 38, 2-Isopropyl-7-{5-[1-(tetrahydropyran-4-ylmethyl)piperidin-4-yl]-[1,3,4]oxadiazol-2-yl}-2H-indazole fumarate], for which the 50% effective concentration (EC50) lay in the range of 5.1 to 20 nM.
For `CC(C)n1cc2cccc(C(=O)NCC3CCN(CC4(O)CCOCC4)CC3)c2n1` [Example 17, N—[N-(4-hydroxytetrahydropyran-4-ylmethyl)piperidin-4-ylmethyl]-2-isopropyl-2H-indazole-7-carboxamide fumarate] the value was at most 1 nM; for `CCn1cc2cccc(C(=O)NCC3C4CN(C5CCOCC5)CC34)c2n1` (stereo not shown) [Example 18, N—[N-(tetrahydropyran-4-yl)-3-azabicyclo[3.1.0]hexane-6-ylmethyl]-2-ethyl-2H-indazole-7-carboxamide oxalate], 5.1 to 20 nM; for `CC(C)n1cc2cccc(C(=O)NCC3CCN(CC4(O)CCCC4)CC3)c2n1` [Example 11, N—[N-(1-hydroxycyclopentylmethyl)piperidin-4-ylmethyl]-2-isopropyl-2H-indazole-7-carboxamide L(+) tartarate], at most 1 nM.
For `CC(C)n1cc2cccc(C(=O)NCC3CCN(C4CCC4)CC3)c2n1` [Example 14, N—(N-cyclobutylpiperidin-4-ylmethyl)-2-isopropyl-2H-indazole-7-carboxamide fumarate], the EC50 is at most 1 nM.
In the case of `CC(C)n1cc2cccc(C(=O)NCC3CCN(CC(C)(C)F)CC3)c2n1` [Example 34, N—[N-(2-fluoro-2-methylpropyl)piperidin-4-ylmethyl]-2-isopropyl-2H-indazole-7-carboxamide L(+) Tartarate] it was at most 1 nM; in that of `CC(C)n1cc2cccc(C(=O)NCC3(O)CCN(C4CCOCC4)CC3)c2n1` [Example 27, N—[(N-tetrahydropyran-4-yl)-4-hydroxypiperidin-4-ylmethyl]-2-isopropyl-2H-indazole-7-carboxamide fumarate], 1.1 to 5 nM; in that of `CC(C)N1CC2C(CNC(=O)c3cccc4cn(C(C)C)nc34)C2C1` (stereo not shown) [Example 16, N—(N-isopropyl-3-azabicyclo[3.1.0]hexane-6-ylmethyl)-2-isopropyl-2H-indazole-7-carboxamide fumarate], 1.1 to 5 nM.
In the case of `COCCCN1CCC(c2nnc(-c3cccc4cn(C(C)C)nc34)o2)CC1` [Example 37, 2-isopropyl-7-{5-[1-(3-methoxypropyl)piperidin-4-yl]-[1,3,4]oxadiazol-2-yl)}-2H-indazole fumarate] it was 5.1 to 20 nM; in that of `COC(C)(C)CN1CCC(CNC(=O)c2cccc3cn(C(C)C)nc23)CC1` [Example 33, N—[N-(2-Methoxy-2-methylpropyl)piperidin-4-ylmethyl]-2-isopropyl-2H-indazole-7-carboxamide], at most 1 nM; in that of `CC(C)n1cc2cccc(C(=O)NCC3CCN(CCF)CC3)c2n1` [Example 7, N—[N-(2-fluoroethyl)piperidin-4-ylmethyl]-2-isopropyl-2H-indazole-7-carboxamide], 5.1 to 20 nM.
For `CC(C)n1cc2cccc(C(=O)NCC3CN(Cc4ccccc4)CCO3)c2n1` (stereo not shown) [Example 8, N—[N-benzylmorpholin-2-ylmethyl]-2-isopropyl-2H-indazole-7-carboxamide fumarate] the value was 20.1 to 50 nM; for `CC(C)n1cc2cccc(C(=O)NC3CCN(CC4CCC4)CC3)c2n1` [Example 21, N—(N-cyclobutylmethylpiperidine-4-yl)-2-isopropyl-2H-indazole-7-carboxamide fumarate], 5.1 to 20 nM; for `CCn1cc2cccc(C(=O)NCC3CCN(CCCOC)CC3)c2n1` [Example 4, N—[N-(3-methoxypropyl)piperidin-4-ylmethyl]-2-ethyl-2H-indazole-7-carboxamide fumarate], at most 1 nM.
In the case of `CC(C)n1cc2cccc(-c3nnc(C4CCN(C5CCOCC5)CC4)o3)c2n1` [Example 39, 2-Isopropyl-7-{5-[1-(tetrahydropyran-4-yl)piperidin-4-yl]-[1,3,4]oxadiazol-2-yl}-2H-indazole fumarate], the EC50 was 1.1 to 5 nM.
For `CC(C)n1cc2cccc(C(=O)NCC3C4CN(CC(C)(C)O)CC34)c2n1` (stereo not drawn) [Example 36, N—[N-(2-hydroxy-2-methylpropyl)-3-azabicyclo[3.1.0]hexane-6-ylmethyl]-2-isopropyl-2H-indazole-7-carboxamide L(+) Tartarate] the value was 5.1 to 20 nM; for `CC(C)n1cc2cccc(C(=O)NCC3CCN(CC(C)(C)CO)CC3)c2n1` [Example 6, N—[N-(3-hydroxy-2,2-dimethylpropyl)piperidin-4-ylmethyl]-2-isopropyl-2H-indazole-7-carboxamide L(+) Tartarate], at most 1 nM.
In the case of `COCCCN1CCC(CNC(=O)c2cccc3cn(C(C)C)nc23)CC1` [Example 24, N—[N-(3-methoxypropyl)piperidin-4-ylmethyl]-2-isopropyl-2H-indazole-7-carboxamide fumarate] it was at most 1 nM; in that of `CC(C)n1cc2cccc(C(=O)NCC3(F)CCN(CC(C)(C)O)CC3)c2n1` [Example 35, N—[N-(2-hydroxy-2-methylpropyl)-4-fluoropiperidin-4-ylmethyl]-2-isopropyl-2H-indazole-7-carboxamide L(+) Tartarate], 5.1 to 20 nM.
For the molecule `CC(C)n1cc2cccc(C(=O)NCC3CCN(CCC(C)(C)O)CC3)c2n1` [Example 29, N—[N-(3-Hydroxy-3-methylbutyl)piperidin-4-ylmethyl]-2-isopropyl-2H-indazole-7-carboxamide], the concentration for a half-maximal effect (EC50) is at most 1 nM.
In the case of `COCCN1CCC(CNC(=O)c2cccc3cn(C(C)C)nc23)CC1` [Example 25, N—[N-(2-methoxyethyl)piperidin-4-ylmethyl]-2-isopropyl-2H-indazole-7-carboxamide fumarate] it was 1.1 to 5 nM; in that of `CC(C)n1cc2cccc(C(=O)NCC3CCN(C4CCCCC4)CC3)c2n1` [Example 15, N—(N-cyclohexylpiperidin-4-ylmethyl)-2-isopropyl-2H-indazole-7-carboxamide fumarate], at most 1 nM; in that of `CC(C)n1cc2cccc(C(=O)NCC3(O)CCN(CC4CCOCC4)CC3)c2n1` [Example 26, N—[(N-tetrahydropyran-4-ylmethyl)-4-hydroxypiperidin-4-ylmethyl]-2-isopropyl-2H-indazole-7-carboxamide fumarate], 1.1 to 5 nM.
Turning to `CC(C)n1cc2cccc(C(=O)NCC3C4CN(CC5CCOCC5)CC34)c2n1` (stereo not shown) [Example 10, N—[N-(tetrahydropyran-4-ylmethyl)-3-azabicyclo[3.1.0]hexane-6-ylmethyl]-2-isopropyl-2H-indazole-7-carboxamide], the concentration giving a half-maximal response (EC50) fell in the range of 1.1 to 5 nM.
In the case of `CC(C)n1cc2cccc(C(=O)NC3CCN(CC4CC4)CC3)c2n1` [Example 20, N—(N-cyclopropylmethylpiperidine-4-yl)-2-isopropyl-2H-indazole-7-carboxamide fumarate] it was 5.1 to 20 nM; in that of `CCn1cc2cccc(C(=O)NCC3C4CN(CCCOC)CC34)c2n1` (stereo not shown) [Example 5, N—[N-(3-methoxypropyl)-3-azabicyclo[3.1.0]hexane-6-ylmethyl]-2-ethyl-2H-indazole-7-carboxamide oxalate], 1.1 to 5 nM.

The record behind these values is US9951045B2, “Indazole compounds as 5-HT4 receptor agonists” (SUVEN LIFE SCIENCES LIMITED, priority 2013, dated 2018).
